{"source": "patent US12251383B2", "about": "“Methods and compositions for KRAS inhibitors” (The Board of Regents of the University of Texas System, priority 2019, dated 2025)", "key": {"GTPKRAS^WT": {"target": "GTPKRAS^WT (Homo sapiens, UniProt P01116)", "sequence (P01116 1-188 isoform P01116-2)": "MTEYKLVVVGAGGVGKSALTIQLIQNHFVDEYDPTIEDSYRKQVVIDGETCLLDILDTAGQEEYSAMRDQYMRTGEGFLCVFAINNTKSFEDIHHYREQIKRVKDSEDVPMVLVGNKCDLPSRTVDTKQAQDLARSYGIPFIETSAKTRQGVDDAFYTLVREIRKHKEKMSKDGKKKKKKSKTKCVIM", "assay": "Microscale thermophoresis (MST) binding, GTP-state (GNP-bound) KRAS WT", "excerpt": "(§1) FIGS. 1A-1D show representative data for the predicted binding mode and measured affinity of disclosed compound 11 to KRAS. (FIG. 1A) Structure of the catalytic domain of KRAS used for the virtual screening. Lobe1 (residues 1-86) and lobe2 (residues 87-166) are highlighted in different colors, as well as switches 1 (residues 30-40) and 2 (residues 60-75). The location of the target allosteric pocket p1 is indicated. (FIG. 1B) Chemical structure of compound 11. (FIG. 1C) Predicted binding pose of compound 11, with the key residues that make polar or vdW contacts with the ligand labeled. (FIG. 1D) Microscale thermophoresis (MST) experiments indicating direct binding of compound 11 to KRAS, along with dissociation constants (KD) derived from the curves. Changes in fluorescence upon titration of […] KRAS with increasing concentration of compound are shown: KRAS^WT (red), KRAS^G12C (green), KRAS^G12D (purple) and KRAS^Q61M (blue), each bound to the non-hydrolyzable GTP analogue, guanylyl imidodiphosphate (GNP). The same experiments indicated no binding to GDP-bound KRAS^G12D and KRAS^WT as well as Rap1B, which was used as control. […]"}, "[1]": {"target": "KRAS^G12C in the GTP state (Homo sapiens, UniProt P01116, G12C)", "sequence (P01116 1-188 isoform P01116-2 G12C)": "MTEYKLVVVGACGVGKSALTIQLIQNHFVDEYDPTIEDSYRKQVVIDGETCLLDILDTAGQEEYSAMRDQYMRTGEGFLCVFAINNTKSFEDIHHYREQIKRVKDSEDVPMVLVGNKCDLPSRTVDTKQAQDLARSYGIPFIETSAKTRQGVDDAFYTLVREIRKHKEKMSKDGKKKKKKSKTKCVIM", "assay": "MST binding, GTP-state KRAS G12C", "excerpt": "as §1"}, "KRAS^G12D": {"tested_on": "KRAS^G12D", "assay": "Cell signaling (Western) in BHK cells expressing KRAS G12D", "assay_type": "cell-based, hamster", "settings": "for IC50: Mesocricetus auratus, BHK, 3 h", "method": "(§2) Cell signaling. The inhibitory potential of compounds was tested in monoclonal Baby Hamster Kidney (BHK) cell lines stably expressing monomeric green fluorescence protein (mGFP)-tagged KRAS^G12D, K-Ras^G12V and HRAS^G12V. Cells were cultured in Dulbecco's Modified Eagle Medium (DMEM, Hyclone) supplemented with 10% v/v bovine calf serum and incubated with compound or vehicle (DMSO) for 3 h without serum. Cells were then harvested in lysis buffer (50 mM Tris (pH 7.5), 75 mM NaCl, 25 mM NaF, 5 mM MgCl2, 5 mM EGTA, 1 mM dithiothreitol, 100 μM NaVO4, 1% Nonidet P40 plus protease inhibitors) and subjected to Western analysis controlling protein loading by BCA (bicinchoninic acid) assay. Lysates were resolved with Bio-Rad polyacrylamide TGX 10% gel, transferred to polyvinylidene fluoride (PVDF) membrane and immunoblotted using pan-AKT (2920S), GFP (2956S), pAKT^S473 (4060L), p-cRaf^S338 (9427S), p-ERK^T202/Y204 (4370L), ERK1/2 (4695S) or β-actin antibodies (Cell Signaling Technology). IC50 values were calculated with Prism 4-parameter fit.\nCell signaling assays identify compound 11 as a promising initial hit Western analysis was used to quickly assess the potential impact of the predicted hits on MAPK signaling, a major pathway mediated by KRAS. Specifically, ERK1/2 phosphorylation levels (p-ERK) were monitored in BHK cells stably expressing KRAS^G12D treated with vehicle (DMSO), the MEK inhibitor […] (U) or compound at four different concentrations (1-100 μM). […] Compounds 9 and 11 (structures for compounds 1-11 are provided in Appendix I, attached hereto), on the other hand, decreased p-ERK levels at concentrations ≥50 μM and ≥5 μM, respectively. To verify the latter observation, the experiments were repeated in an expanded concentration range starting from 0.1 μM. […] However, compound 9 (see Appendix I, attached hereto) increased p-ERK levels at 25 and 38 μM in contrast to the decrease observed at higher concentrations (FIG. S1B; see Appendix I, attached hereto)."}, "KRAS^G12V": {"tested_on": "KRAS^G12V", "assay": "Cell signaling (Western) in BHK cells expressing KRAS G12V", "assay_type": "cell-based, hamster", "method": "as §2"}, "[2]": {"tested_on": "SKLU-1 (KRAS^G12D) lung cancer cells", "assay": "Cell proliferation (CyQuant), SKLU-1", "assay_type": "cell-based", "settings": "72 h", "method": "(§3) Cell proliferation. Potential effect of the ligands on cancer cell proliferation was tested in three lung cancer cells: SKLU-1, H1975 and H522. Cells were plated at ˜1,000 cell per well in a 96-well plate and maintained in full serum media with or without compound at 37° C. for 72 h changing the media with the compound every 24 h. Media with compound was prepared by serial dilution at concentrations indicated. Then cells were washed with PBS and frozen at −80° C. for a minimum of 24 h. Plates were thawed and CyQuant™ dye (in lysis buffer provided in the CyQuant™ cell proliferation assay kit, Invitrogen™) was added, and after a five-minute incubation, fluorescence (excitation: 480 nm emission: 520 nm) was measured with a Tecan Infinite M200 plate reader."}, "[3]": {"tested_on": "H1975 (KRAS^WT) lung cancer cells", "assay": "Cell proliferation (CyQuant), H1975", "assay_type": "cell-based", "settings": "72 h", "method": "as §3"}, "lung cancer cells": {"tested_on": "lung cancer cells", "assay": "Cell proliferation (CyQuant), lung cancer cells overall", "assay_type": "cell-based", "excerpt": "(FIG. 5A) Chemical structure of compounds 12, an analogue of 11 lacking the terminal methyl alcohol functional group. (FIG. 5B) Predicted binding pose of compound 12. (FIG. 5C) p-ERK and p-cRaf levels in BHK cells expressing KRAS^G12D treated with indicated concentrations of compound 12 or vehicle. (FIG. 5D) Proliferation profile of lung cancer cells upon treatment with increasing concentration of compound 12, monitored by a CyQuant assay. Data are averages over three independent experiments and error bars represent standard error. (FIG. 5E) GFP fluorescence lifetime from FLIM-FRET using cells expressing GFP-KRAS^G12D alone or together with RFP-cRaf, with or without treatment with 2 μM compound 12.\nas §3"}, "KRAS": {"tested_on": "KRAS", "assay": "MST affinity for KRAS (G12D and other KRAS mutants)", "assay_type": "binding, human", "settings": "MST KD"}, "[4]": {"assay": "Solubility in DMSO and common solvents", "assay_type": "physicochemical", "settings": "DMSO"}}, "note": "“Also recorded” adds a separate entry of the source. Where two headings read alike, the source gives them in different places."}
{"smiles": "Cc1nn2c(N3CCN(CCO)CC3)cc(-c3ccccc3)nc2c1-c1ccccc1", "note": "[Compound 11, 2-[4-(8-methyl-3,9-diphenyl-2,6,7-triazabicyclo[4.3.0]nona-2,4,7,9-tetraen-5-yl)piperazin-1-yl]ethanol]", "values": [{"measurement": "Kd", "setting": "GTPKRAS^WT", "value": "~300", "unit": "nM"}, {"measurement": "Kd", "setting": "[1]", "value": "400 to 700", "unit": "nM"}, {"measurement": "concentration at which p-ERK levels are decreased", "setting": "KRAS^G12D; BHK KRAS^G12D", "value": "≥ 5", "unit": "µM"}, {"measurement": "effect on p-ERK levels", "setting": "KRAS^G12D; BHK KRAS^G12D", "value": "dose-dependently reduced; also recorded: dose-dependently decreases"}, {"measurement": "effect on p-cRaf levels", "setting": "KRAS^G12D; BHK KRAS^G12D", "value": "dose-dependently reduced; also recorded: dose-dependently decreases"}, {"measurement": "reduction of p-ERK levels", "setting": "KRAS^G12D; BHK KRAS^G12D, at 5 μM", "value": "~50", "unit": "%"}, {"measurement": "IC50", "setting": "KRAS^G12D; read-out: IC50 for p-ERK", "value": 1300, "unit": "nM"}, {"measurement": "IC50", "setting": "KRAS^G12D; read-out: IC50 for p-cRaf", "value": 700, "unit": "nM"}, {"measurement": "effect on p-ERK levels", "setting": "KRAS^G12V", "value": "dose-dependently reduced; also recorded: dose-dependently decreases"}, {"measurement": "effect on p-cRaf levels", "setting": "KRAS^G12V", "value": "dose-dependently reduced; also recorded: dose-dependently decreases"}, {"measurement": "sensitivity of proliferation", "setting": "[2]", "value": "slightly more sensitive; also recorded: especially responsive"}, {"measurement": "sensitivity of proliferation", "setting": "[3]", "value": "sensitive"}, {"measurement": "selectivity between KRAS mutant and KRAS^WT lung cancer cells", "setting": "lung cancer cells", "value": "no significant difference"}]}
{"smiles": "Cc1cc(N2CCN(CCO)CC2)n2nc(C)c(-c3ccccc3)c2n1", "note": "[Compound 13]", "values": [{"measurement": "weaker affinity for KRAS than compound 11", "setting": "KRAS", "value": "6.5-7.1 fold"}, {"measurement": "solubility", "setting": "[4]", "value": "readily soluble"}]}
